Target: T1, IGF-1R (Homo sapiens, UniProt P08069)
T1 construct: expressed in transfected cells; host or cells: Hek293 (Hek293-IGF1R)
Experiment: Cellular IGF-1R assay: capture ELISA (MSD) of receptor phosphorylation in Hek293 cells
Type: cell-based
Settings: Hek293-IGF1R cells, 1 h pre-incubation, 10 min IGF stimulation, pIGF1R capture ELISA
Procedure, shortened: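 IC50 from 4-parameter fit of IGF1R phosphorylation, normalised to IGF-stimulated and unstimulated controls, measured by MSD capture ELISA on lysates. Hek293-IGF1R cells in starvation medium got compound 1 h (top 10 μM, 3-fold steps, 0.1% DMSO) before a 10 min pulse of 1.0 ng/μL IGF.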

T1 sequence (P08069 31-1367): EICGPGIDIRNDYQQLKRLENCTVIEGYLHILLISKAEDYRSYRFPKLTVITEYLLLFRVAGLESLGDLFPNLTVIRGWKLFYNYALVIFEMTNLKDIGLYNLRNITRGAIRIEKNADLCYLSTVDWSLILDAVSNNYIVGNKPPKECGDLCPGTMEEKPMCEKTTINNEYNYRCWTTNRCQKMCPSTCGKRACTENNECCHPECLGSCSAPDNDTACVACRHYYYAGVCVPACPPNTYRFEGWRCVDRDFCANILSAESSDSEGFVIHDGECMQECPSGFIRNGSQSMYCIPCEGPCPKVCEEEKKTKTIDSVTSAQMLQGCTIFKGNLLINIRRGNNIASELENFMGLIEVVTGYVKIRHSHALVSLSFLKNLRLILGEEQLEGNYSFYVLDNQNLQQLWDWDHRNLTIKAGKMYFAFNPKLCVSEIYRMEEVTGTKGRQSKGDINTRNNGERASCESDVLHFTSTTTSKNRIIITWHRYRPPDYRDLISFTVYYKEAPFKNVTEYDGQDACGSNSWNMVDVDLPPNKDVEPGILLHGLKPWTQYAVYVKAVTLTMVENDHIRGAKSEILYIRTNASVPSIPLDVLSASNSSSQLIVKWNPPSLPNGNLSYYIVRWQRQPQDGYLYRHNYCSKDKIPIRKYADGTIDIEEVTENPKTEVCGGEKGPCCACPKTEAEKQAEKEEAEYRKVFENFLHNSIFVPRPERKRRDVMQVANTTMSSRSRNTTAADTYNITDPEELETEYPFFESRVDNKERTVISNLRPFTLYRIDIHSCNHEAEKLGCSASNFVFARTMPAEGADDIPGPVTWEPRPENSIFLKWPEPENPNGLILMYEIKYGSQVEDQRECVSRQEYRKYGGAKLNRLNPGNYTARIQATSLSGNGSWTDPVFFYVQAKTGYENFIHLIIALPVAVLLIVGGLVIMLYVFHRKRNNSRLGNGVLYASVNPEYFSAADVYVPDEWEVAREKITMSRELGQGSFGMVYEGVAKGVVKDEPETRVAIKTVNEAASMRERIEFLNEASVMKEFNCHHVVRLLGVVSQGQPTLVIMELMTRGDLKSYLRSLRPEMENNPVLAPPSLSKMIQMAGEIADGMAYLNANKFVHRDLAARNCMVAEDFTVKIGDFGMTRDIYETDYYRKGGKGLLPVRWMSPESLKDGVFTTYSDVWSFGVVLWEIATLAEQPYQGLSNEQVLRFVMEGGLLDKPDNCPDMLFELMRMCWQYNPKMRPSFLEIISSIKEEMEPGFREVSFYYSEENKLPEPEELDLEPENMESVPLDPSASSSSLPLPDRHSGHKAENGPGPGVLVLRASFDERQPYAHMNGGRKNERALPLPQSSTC

SMILES | IC50 [nM]
Nc1ncnc2c1c(-c1cccc(OCC34CCC(CC3)O4)c1)cn2C1CC(O)(CN2CCCC2CO)C1 (single isomer, unassigned) [Example 211] | 224
Nc1ncnc2c1c(-c1cccc(OCC34CCC(CC3)O4)c1)cn2C1CC(CN2CC3CC2C[S+]3[O-])C1 (single isomer, unassigned) [Example 228] | 10 to 15
Nc1ncnc2c1c(-c1cccc(OCC34CCC(CC3)O4)c1)cn2C1CC(CN2CC3CC2C[S+]3[O-])C1 (single isomer, unassigned) [Example 229] | 633
Nc1ncnc2c1c(-c1cccc(OC[C@@H]3CCCO3)c1)cn2[C@H]1C[C@@H](CN2CCS(=O)(=O)CC2)C1 [Example 4, cis-7-(3-[(1,1-dioxidothiomorpholin-4-yl)methyl]cyclobutyl}-5-{3-[(2S)-tetrahydrofuran-2-ylmethoxy]phenyl}-7H-pyrrolo[2,3-d]pyrimidin-4-amine] | 36
CC1CCC(COc2cccc(-c3cn([C@H]4C[C@@H](CN5CCC5)C4)c4ncnc(N)c34)c2)O1 (stereo partly drawn) [Example 5, cis-7-(3-azetidin-1-ylmethyl-cyclobutyl)-5-[3-(5-methyl-tetrahydro-furan-2-ylmethoxy)-phenyl]-7H-pyrrolo[2,3-d]pyrimidin-4-ylamine] | 51 to 58
CC1(C)CCC(COc2cccc(-c3cn(C4CC(CN5CCS(=O)(=O)CC5)C4)c4ncnc(N)c34)c2)O1 (stereo not shown) [Example 14, 5-[3-(5,5-dimethyl-tetrahydro-furan-2-ylmethoxy)phenyl]-7-[3-(1,1-dioxothiomorpholin-4-ylmethyl)-cyclobutyl]-7H-pyrrolo[2,3-d]pyrimidin-4-ylamine] | 17
Nc1ncnc2c1c(-c1cccc(OC[C@@H]3CCCO3)c1)cn2[C@H]1C[C@@H](CN2CCC(F)(F)CC2)C1 [Example 16, cis-7-[3-(4,4-Difluoro-piperidin-1-ylmethyl)-cyclobutyl]-5-{3-[(S)-1-(tetrahydrofuran-2-yl)methoxy]-phenyl}-7H-pyrrolo[2,3-d]pyrimidin-4-ylamine] | 90 to 219
Nc1ncnc2c1c(-c1cccc(OCC34CCC(CC3)O4)c1)cn2C1CC(CN2CCC2)C1 (stereo not shown) [Example 23, 7-(3-azetidin-1-ylmethyl-cyclobutyl)-5-[3-(7-oxa-bicyclo[2.2.1]hept-1-ylmethoxy)-phenyl]-7H-pyrrolo[2,3-d]pyrimidin-4-ylamine] | 45 to 60
Nc1ncnc2c1c(-c1cccc(OCC34CCC(CC3)O4)c1)cn2C1CC(CN2CCS(=O)(=O)CC2)C1 (stereo not shown) [Example 24, 7-[3-(1,1-dioxo-1-thiomorpholin-4-ylmethyl)-cyclobutyl]-5-[3-(7-oxa-bicyclo[2.2.1]hept-1-ylmethoxy)-phenyl]-7H-pyrrolo[2,3-d]pyrimidin-4-ylamine] | 3.9 to 4
Nc1ncnc2c1c(-c1cccc(OCC34CCC(CC3)O4)c1)cn2C1CC(CN2CCC[C@H]2CO)C1 (stereo partly drawn) [Example 25, [(S)-1-(3-{4-amino-5-[3-(7-oxa-bicyclo[2.2.1]hept-1-ylmethoxy)-phenyl]-pyrrolo[2,3-d]pyrimidin-7-yl}-cyclobutylmethyl)-pyrrolidin-2-yl]-methanol] | 4 to 14
Nc1ncnc2c1c(-c1cccc(OCC34CCC(CC3)O4)c1)cn2C1CC(CN2CC(O)C2)C1 (stereo not shown) [Example 26, 1-(3-{4-amino-5-[3-(7-oxa-bicyclo[2.2.1]hept-1-ylmethoxy)-phenyl]-pyrrolo[2,3-d]pyrimidin-7-yl}-cyclobutylmethyl)azetidin-3-ol] | 38
Nc1ncnc2c1c(-c1cccc(OCC3CCCCO3)c1)cn2C1CC(CN2CC[C@@H](F)C2)C1 (stereo partly drawn) [Example 27, 7-[3-((R)-3-fluoro-pyrrolidin-1-ylmethyl)-cyclobutyl]-5-[3-(tetrahydro-pyran-2-ylmethoxy)-phenyl]-7H-pyrrolo[2,3-d]pyrimidin-4-ylamine] | 345
NC(=O)[C@H]1CCCN1C[C@H]1C[C@@H](n2cc(-c3cccc(OCC4CCCCO4)c3)c3c(N)ncnc32)C1 (stereo partly drawn) [Example 29, (R)-1-(cis-3-{4-amino-5-[3-(tetrahydro-pyran-2-ylmethoxy)-phenyl]-pyrrolo[2,3-d]pyrimidin-7-yl}-cyclobutylmethyl)-pyrrolidine-2-carboxylic acid amide] | 149 to 152
Nc1nccn2c1c(-c1cccc(OCC3CCCCO3)c1)nc2[C@H]1C[C@@H](CN2CCS(=O)(=O)CC2)C1 (stereo partly drawn) [Example 30, 3-[cis-3-(1,1-Dioxothiomorpholin-4-ylmethyl)-cyclobutyl]-1-[3-(tetrahydro-pyran-2-ylmethoxy)-phenyl]-imidazo[1,5-a]pyrazin-8-ylamine] | 254
Nc1ncnc2c1c(-c1cccc(OCC3CCCCO3)c1)cn2[C@H]1C[C@@H](CN2CC[C@@H](O)C2)C1 (stereo partly drawn) [Example 33, (R)-1-(cis-3-{4-amino-5-[3-(tetrahydro-pyran-2-ylmethoxy)-phenyl]-pyrrolo[2,3-d]pyrimidin-7-yl}-cyclobutylmethyl)-pyrrolidin-3-ol] | 235
Nc1ncnc2c1c(-c1cccc(OCC3CCCCO3)c1)cn2[C@H]1C[C@@H](CN2CC[C@H](O)C2)C1 (stereo partly drawn) [Example 34, (S)-1-(cis-3-{4-amino-5-[3-(tetrahydro-pyran-2-ylmethoxy)-phenyl]-pyrrolo[2,3-d]pyrimidin-7-yl}-cyclobutylmethyl)-pyrrolidin-3-ol] | 333
NC(=O)[C@@H]1[C@@H](O)CCN1C[C@H]1C[C@@H](n2cc(-c3cccc(OCC4CCCCO4)c3)c3c(N)ncnc32)C1 (stereo partly drawn) [Example 35, (2S,3S)-1-(cis-3-{4-amino-5-[3-(tetrahydro-pyran-2-ylmethoxy)-phenyl]-pyrrolo[2,3-d]pyrimidin-7-yl}-cyclobutylmethyl)-3-hydroxy-pyrrolidine-2-carboxylic acid amide] | 41 to 103
NC(=O)[C@@H]1CCCN1C[C@H]1C[C@H](n2cc(-c3cccc(OCC4CCCCO4)c3)c3c(N)ncnc32)C1 (stereo partly drawn) [Example 38, (S)-1-(trans-3-{4-amino-5-[3-(tetrahydro-pyran-2-ylmethoxy)-phenyl]-pyrrolo[2,3-d]pyrimidin-7-yl}-cyclobutylmethyl)-pyrrolidine-2-carboxylic acid amide] | 276
CC1(C)CCC(COc2cccc(-c3cn(C4CC(CN5CC(F)C5)C4)c4ncnc(N)c34)c2)O1 (stereo not drawn) [Example 40, 5-(cis-3-((5,5-dimethyltetrahydrofuran-2-yl)methoxy)phenyl)-7-(3-((3-fluoroazetidin-1-yl)methyl)cyclobutyl)-7H-pyrrolo[2,3-d]pyrimidin-4-amine] | 39 to 52
NC(=O)[C@@H]1CCCN1C[C@H]1C[C@@H](n2cc(-c3cccc(OCC4CCCCO4)c3)c3c(N)ncnc32)C1 (stereo partly drawn) [Example 42, (S)-1-(cis-3-{4-amino-5-[3-(tetrahydro-pyran-2-ylmethoxy)-phenyl]-pyrrolo[2,3-d]pyrimidin-7-yl}-cyclobutylmethyl)-pyrrolidine-2-carboxylic acid amide] | 26 to 39
NC(=O)[C@@H]1CCCN1C[C@H]1C[C@@H](n2cc(-c3cccc(OC[C@H]4CCCCO4)c3)c3c(N)ncnc32)C1 [Example 43, (S)-1-[3-(4-amino-5-{3-[(R)-1-(tetrahydro-pyran-2-yl)methoxy]-phenyl}-pyrrolo[2,3-d]pyrimidin-7-yl)-cyclobutylmethyl]-pyrrolidine-2-carboxylic acid amide] | 4 to 22
NC(=O)[C@@H]1CCCN1C[C@H]1C[C@@H](n2cc(-c3cccc(OC[C@@H]4CCCCO4)c3)c3c(N)ncnc32)C1 [Example 44, (S)-1-[3-(4-amino-5-{3-[(S)-1-(tetrahydro-pyran-2-yl)methoxy]-phenyl}-pyrrolo[2,3-d]pyrimidin-7-yl)-cyclobutylmethyl]-pyrrolidine-2-carboxylic acid amide] | 7 to 15
CC1(C)CCC(COc2cccc(-c3cn(C4CC(CN5CC(F)C5)C4)c4ncnc(N)c34)c2)O1 (stereo not drawn) [Example 47, 5-[trans-3-(5,5-dimethyl-tetrahydro-furan-2-ylmethoxy)-phenyl]-7-[3-(3-fluoro-azetidin-1-ylmethyl)-cyclobutyl]-7H-pyrrolo[2,3-d]pyrimidin-4-ylamine] | 34
CC1(C)CCC(COc2cccc(-c3cn([C@H]4C[C@@H](CN5CCC[C@H]5C(N)=O)C4)c4ncnc(N)c34)c2)O1 (stereo partly drawn) [Example 50, (S)-1-(cis-3-{4-amino-5-[3-(5,5-dimethyl-tetrahydro-furan-2-ylmethoxy)-phenyl]-pyrrolo[2,3-d]pyrimidin-7-yl}-cyclobutylmethyl)-pyrrolidine-2-carboxylic acid amide] | 8
CC1(C)CCC(COc2cccc(-c3cn([C@H]4C[C@@H](CN5CCC[C@@H]5C(N)=O)C4)c4ncnc(N)c34)c2)O1 (stereo partly drawn) [Example 51, (R)-1-(cis-3-{4-amino-5-[3-(5,5-dimethyl-tetrahydro-furan-2-ylmethoxy)-phenyl]-pyrrolo[2,3-d]pyrimidin-7-yl}-cyclobutylmethyl)-pyrrolidine-2-carboxylic acid amide] | 53
NC(=O)[C@H]1[C@@H](O)CCN1C[C@H]1C[C@@H](n2cc(-c3cccc(OCC4CCCCO4)c3)c3c(N)ncnc32)C1 (stereo partly drawn) [Example 56, (2R,3S)-1-(cis-3-{4-amino-5-[3-(tetrahydro-pyran-2-ylmethoxy)-phenyl]-pyrrolo[2,3d]pyrimidin-7-yl}-cyclobutylmethyl)-3-hydroxy-pyrrolidine-2-carboxylic acid amide] | 97
CC1(C)CCC(COc2cccc(-c3cn(C4CC(CN5CCC(O)C5)C4)c4ncnc(N)c34)c2)O1 [Example 57, (S)-1-(3-{4-amino-5-[3-(5,5-dimethyl-tetrahydro-furan-2-ylmethoxy)-phenyl]-5 pyrrolo[2,3-d]pyrimidin-7-yl}-cyclobutylmethyl)-pyrrolidin-3-ol] | 15
CC1(C)CCC(COc2cccc(-c3cn([C@H]4C[C@@H](CN5CC[C@@H](O)C5)C4)c4ncnc(N)c34)c2)O1 (stereo partly drawn) [Example 58, (R)-1-(cis-3-{4-amino-5-[3-(5,5-dimethyl-tetrahydro-furan-2-ylmethoxy)-phenyl]-pyrrolo[2,3-d]pyrimidin-7-yl}cyclobutylmethyl)-pyrrolidin-3-ol] | 50
